Here are results for five compounds from patent publication US6929811B2, “Monoamine oxidase (MAO) inhibitors and uses thereof” (priority 1998, dated 2005).

In one test the test system is MPTP induced toxicity. Particulars: mice, cited from earlier work; for effect on dopamine levels: MPTP.
In another test the test system is MAO. Description: Total MAO activity, spectrophotometric assay in liver homogenate. The test is classed as biochemical, cow or rat. Particulars: for percent inhibition of MAO activity: at maximal or saturating inhibition concentrations, tyramine substrate, 37 degrees Centigrade; for maximal inhibition concentration: dissolved in distilled water, concentration curve at reaction time of one hour; for MAO inhibition over the reaction time course: saturating concentrations, over 60 minutes of MAO activity. The protocol: The MAO activities of the compounds and substances were determined using standard reaction conditions as described in Halt, A., et al., Analytical Biochemistry, 244:384-392 (1997).
(§1) Liver samples from cow or rat were obtained immediately after sacrifice. Liver was homogenized in a Polytron mechanical homogenizer in a ratio of 1 gram of liver to 1 ml of potassium phosphate buffer (0.2 M at pH of 7.6). Large membranes were removed by low speed centrifugation at 1000×g for 15 minutes. The supernatant was removed from the pellet and used immediately for MAO activity assays or stored at 0 degrees Centigrade. Protein levels were determined in the liver homogenate by the Bradford protein reaction.
The standard reaction conditions were developed as a modification of the spectrophotometric assay using standard conditions (Halt, A., et al., Analytical Biochemistry, 244:384-392 (1997)). Total MAO activity was determined by incubating the liver preparations for 30 minutes at 37 degrees Centigrade with a 1/1 dilution of a test fraction (compound or substance to be tested dissolved in distilled water) or control condition (water alone). This incubation allowed the test compound or substance to interact with the enzyme under physiological conditions. The final tissue concentration in the reaction mixture was 3.5 mg per 100 ml.
Following the incubation with test compounds/substances or control, the MAO reactions were initiated and the reactions were incubated at 37 degrees Centigrade. The reaction was initiated by mixing 150 μl of preincubated tissue with 150 μl of chromogenic solution (containing 10 mM vanillic acid, 5 mM 4-amino antipyrene, 20 units/ml of peroxidase in 0.2 M potassium phosphate buffer final concentration pH 7.6), 600 μl of amine substrate (tyramine 500 micromolar), and 100 μl of distilled water (1 ml reaction volume). The standard reaction time was for 1 hour, but reaction times varied from 1 minute to 3 hours to evaluate the time course of the reaction in the presence or absence of test substance or control. The reactions were terminated by the addition of 30 μl of a stop solution of phenelzine (10 mM). The stopped reactions were stored on ice and placed at room temperature for reading in a spectrophotometer at a wavelength of 498 nm. The resulting values were analyzed to determine the amount of reaction product produced by MAO activity. This assay was reliable and simple to perform. A standard curve using hydrogen peroxide for enzyme activity was prepared for each experiment to determine the activity of the enzyme.
(§2) Each of the compounds and substances of the present invention were evaluated by initially determining a concentration curve at a reaction time of one hour. After determining the concentration curves of each compound or substance on MAO activity, a reaction time course in the presence or absence of test compound or substance was determined and time course curves were generated. Following these experiments, the effect of each test compound or substance was evaluated on MAO A and MAO B activity by the same reaction studies as described above for the total enzyme activity.

In a further test the test system is MAO A. As to the kind of experiment: Selective MAO A assay in liver homogenate, other isoform blocked by selective inhibitor. The settings on record: saturating concentration; significantly different from control. The test is classed as biochemical, cow or rat. The protocol:
as §1
(§3) The standard reaction conditions were developed as a modification of the spectrophotometric assay using standard conditions (Halt, A., et al., Analytical Biochemistry, 244:384-392 (1997)). Total MAO activity was determined by incubating the liver preparations for 30 minutes at 37 degrees Centigrade with a 1/1 dilution of a test fraction (compound or substance to be tested dissolved in distilled water) or control condition (water alone). […]
(§4) Following the incubation with test compounds/substances or control, the MAO reactions were initiated and the reactions were incubated at 37 degrees Centigrade. […] The stopped reactions were stored on ice and placed at room temperature for reading in a spectrophotometer at a wavelength of 498 nm. The resulting values were analyzed to determine the amount of reaction product produced by MAO activity. […]
(§5) Selective assays of MAO A and MAO B isoforms were determined by using selective inhibitors of each of these enzymes. […]
as §2

The test system of a further test is MAO B. As to the kind of experiment: Selective MAO B assay in liver homogenate, other isoform blocked by selective inhibitor. The test is classed as biochemical, cow or rat. Particulars: saturating concentration; significantly different from control. Here is the method: as §1, §3, §4, §5, §2

`CN1CCCC1c1cccnc1` (stereo not shown) [nicotine]: in the test with MPTP induced toxicity, the “effect on dopamine levels” value is reported as “no significant effect on dopamine levels” and the “effect on decrease in dopamine metabolite levels induced by MPTP” value was “prevented the decrease in dopamine metabolite levels”.

Take `C1=CCC(c2cccnc2)NC1` (stereo not shown) [anatabine, Anatabine]: in the test on MAO, the “percent inhibition of MAO activity” value is “approximately 60%”, the maximal inhibition concentration was 0.1 mg/mL and the “MAO inhibition over the reaction time course” value was “effective at inhibiting the enzyme at all time points in the reaction”. For the same compound, in the test on MAO A, the “inhibition of MAO A activity” value was “equally effective in inhibiting both MAO A and MAO B activities”. The “inhibition of MAO B activity” value in the test with MAO B was “equally effective in inhibiting both MAO A and MAO B activities”.

On to `c1cncc([C@@H]2CCCN2)c1` [nornicotine, Nornicotine], for which, in the test with MAO, the “percent inhibition of MAO activity” value is on record as 80 to 95%, the maximal inhibition concentration came to 0.08 mg/mL and the “MAO inhibition over the reaction time course” value is “effective at inhibiting the enzyme at all time points in the reaction”. For the same compound, the “inhibition of MAO A activity” value with MAO A is “equally effective in inhibiting both MAO A and MAO B activities”. For the same compound, the “inhibition of MAO B activity” value with MAO B is “equally effective in inhibiting both MAO A and MAO B activities”.

In the case of `c1cncc([C@@H]2CCCCN2)c1` [anabasine, Anabasine], in the test on MAO, the “percent inhibition of MAO activity” value is given as 10-13%, the maximal inhibition concentration worked out at 0.2 mg/mL and the “MAO inhibition over the reaction time course” value is given as “effective at inhibiting the enzyme at all time points in the reaction”. The “inhibition of MAO A activity” value in the test on MAO A was “inhibit both MAO A and MAO B activity”. For the same compound, in the test with MAO B, the “inhibition of MAO B activity” value is “inhibit both MAO A and MAO B activity”.

In the case of `c1ccc(-c2ccncc2)cc1` [4-phenylpyridine], in the test with MPTP induced toxicity, the “effect on dopamine levels” value was “no significant effect on dopamine levels” and the “effect on decrease in dopamine metabolite levels induced by MPTP” value was “prevented the decrease in dopamine metabolite levels”.
